US20200109394A1, “COMPOSITIONS AND METHODS FOR ISOLATING CIRCULATING CELLS” (Prescient Pharma LLC, priority 2018, published 2020)

How the values were obtained:
HT29 cells [1] = assay: Prussian blue iron staining of HT29 cells after incubation in medium with Fe2DG; assay type: cell-based, human; conditions: Fe2DG 1 mg/ml in DMEM no glucose with 10% FBS, two hours
Procedure: In this third Example, the differential ability of normal vs cancer cells (higher for malignant cells) to accumulate Iron (Fe) from Fe2DG added to medium was studied. For routine maintenance, HT29 cells (ATCC HTB-38) were grown in McCoy's 5 A complete growth medium (Cat. No. 30-2007; ATCC, Manassas, Va.) supplemented by 10% FBS, and 1× Penicillin/Streptomycin in an incubator at 37° C. and 5% CO2. Cells were passaged every 4 days. For Fe2DG treatments, HT29 cells (ATCC HTB-38) cells were grown in 25 cm^2 Nunclon Delta Surface flasks (Cat. No. 136196; Thermo Fisher Scientific, Waltham, Mass.) with McCoy's 5A complete medium and kept in an incubator at 37° C. and 5% CO2 until close to 75% confluence was reached. Then medium for both cell types was replaced by DMEM no glucose (ThermoFisher Cat. No. 11966025) supplemented by 10% FBS and Fe2DG 1 mg/ml for two hours. Then medium was removed and both flasks were stained by Prussian blue staining kit “Advanced testing Iron stain” (ThermoFisher Cat. No. 87006). Cells in the flasks were fixed by 10% Formalin, then rinsed by deionized water. Then the cells were stained by freshly prepared Working Iron Solution 30 minutes at room temperature. Then the cells were rinsed by deionized water and counterstain by Nuclear Red Satin Solution for 30 seconds. […]

WBC = assay: Effect on WBC of magnetic trapping in the HT29/whole blood mixture with Fe2DG (FACS); assay type: cell-based; conditions: Fe2DG 1 mg per 1 ml in human whole blood, RT 2 hours, 30 min inside round magnet
Procedure: 500 ul of HT29 suspension was added to 4 ml of fresh human volunteer whole blood. Fe2DG in final concentration 1 mg per 1 ml was added. The blood then was incubated in RT for 2 hours. Then the blood was divided on two portions. Both portions were placed inside of plastic tube (10 cm long, 3 mm outside diameter). One tube was placed inside of the round magnet, another tube was outside of the magnet. After incubation for 30 min; contents of both tubes were gently pushed out. RBC were lysed by adding 4 volumes of distillate water for 30 sec. Then PBS was added to restore osmolarity. After centrifugation for 5 min 1000 rpm and removing of supernatant, the pellet was resuspended in 0.5 ml of PBS and introduced for analysis by BD FACS Aria III

HT29 cells [2] = assay: Depletion of HT29 cells loaded with Fe2DG by external magnet in McCoy's 5A medium (microscopy); assay type: cell-based, human; conditions: Fe2DG 1 mg per 1 ml in McCoy's 5A medium with 10% FBS, RT 1 hour, 30 min inside round magnet vs outside, Hematoxylin stain
Procedure: In this fourth Example, the effect of external magnet on suspension HT29 cells (human adenocarcinoma) in complete McCoy's 5A medium after adding of Fe2DG was studied. Suspension of HT29 cells (ATCC HTB-38) in McCoy's 5A medium with 10% of FBS was count by Countess automated cell counter (Invitrogen). Results: live cells 3.6×10^6/ml, dead cells 1.6×10^5/ml, Viability 96% Fe2DG was added to the cell suspension in final concentration 1 mg per 1 ml. Cells then were incubated in RT for 1 hour. Then the suspension was divided on two portions. Both portions were placed inside of plastic tube (10 cm long, 3 mm in diameter). One tube was placed inside of the round magnet, another tube was outside of the magnet. After incubation for 30 min; contains of both tubes were gently pushed out, and placed on the glass slide, and stained by Hematoxylin. Slides were examined under light microscope Olympus BX51 and pictures were taken using Olympus DP73 digital camera.

A375-eGFP-puro cells = assay: Enrichment of A375-eGFP-puro cells incubated with Fe2DG by external magnet from mixture with whole human blood (FACS); assay type: cell-based; conditions: Fe2DG 1 mg per 1 ml in human whole blood, RT 2 hours, 30 min in magnet; fraction #2 (tube out of magnet) vs fraction #1, FACS
Procedure: In this second Example, the effect of external magnet on suspension A375-eGFP-puro cells (human melanoma) in whole blood after adding of Fe2DG was studied.
A375-eGFP-puro cells (Imanis Life Science) has enhanced Green Fluorescent Protein as a reporter. And can be detected by fluorescent microscope of FACS because of green fluorescence.
For routine maintenance, A375-eGFP-puro cells were grown in DMEM complete growth medium (Cat. No. 30-2002; ATCC, Manassas, Va.) supplemented by 10% FBS, Penicillin/Streptomycin and 1 ug/ml Puromycin in an incubator at 37° C. and 5% CO2. Cells were passaged every 4 days. The cells were detached from flasks using trypsin and re-suspended in 5 mL of fresh DMEM medium.
500 ul of A375-eGFP-puro cells suspension was added to 4 ml of fresh human volunteer whole blood. Fe2DG in final concentration 1 mg per 1 ml was added. The blood then was incubated in RT for 2 hours. Then the blood was placed inside of plastic tube (10 cm long, 3 mm outside diameter). The tube was placed inside of the round magnet. After incubation for 30 min; 0.1 ml of the blood was gently pushed through the tube and through the magnet. […] After centrifugation for 5 min 1000 rpm and removing of supernatant, the pellet was resuspended in 0.5 ml of PBS and introduced for analysis by BD fluorescence-activated cell sorter (FACS) Aria III.

HT29 cells [3] = assay: Depletion of Fe2DG-loaded HT29 cells by external magnet from mixture with whole blood (FACS); assay type: cell-based; conditions: Fe2DG 1 mg per 1 ml in human whole blood, RT 2 hours, 30 min inside round magnet vs outside
Procedure: In this Example, the effect of external magnet on suspension HT29 cells (human adenocarcinoma) in whole blood after adding of Fe2DG was studied. For routine maintenance, HT29 cells (ATCC HTB-38) were grown in McCoy's 5A complete growth medium (Cat. No. 30-2007; ATCC, Manassas, Va.) supplemented by 10% FBS, and 1× Penicillin/Streptomycin in an incubator at 37° C. and 5% CO2. Cells were passaged every 4 days. The cells were detached from flasks using trypsin and re-suspended in 5 mL of fresh McCoy's 5A medium. Suspension of HT29 cells (ATCC HTB-38) was count by Countess automated cell counter (Invitrogen). Results: total 1.5×10^6/ml, live cells 1.4×10^6/ml, dead cells 1.3×10^5/ml, Viability 91% Cells were stained by BCECF AM (Life technologies Ref # B1150) intracellular fluorescent dye, according manufacturer instructions. 1 mg of BCECF AM (Invitrogen) was dissolved in 1 ml of DMSO and 10 aliquots were prepared. 1 aliquot was dissolved in 10 ml of Hank's Balanced Salt Solution to make working concentration (0.016 mM). Working solution of BCECF AM was added to HT29 cells suspension (5 ml of BCECF AM 5 ml of HT29 cells suspension in medium) and incubated in room temperature for 30 minutes in the dark. 500 ul of HT29 suspension was added to 4 ml of fresh human volunteer whole blood. Fe2DG in final concentration 1 mg per 1 ml was added. The blood then was incubated in RT for 2 hours. […]

[4] = test system: CRL-1790 cells (human fibroblasts); assay: Prussian blue iron staining of CRL-1790 cells after incubation in medium with Fe2DG; assay type: cell-based; conditions: Fe2DG 1 mg/ml in DMEM no glucose with 10% FBS, two hours
Procedure: In this third Example, the differential ability of normal vs cancer cells (higher for malignant cells) to accumulate Iron (Fe) from Fe2DG added to medium was studied. For routine maintenance, CCD 841 CoN human colon fibroblast cells (CRL-1790; ATCC, Manassas, Va.) were grown in EMEM complete growth medium (Cat. No. 30-2003; ATCC, Manassas, Va.) supplemented by 10% FBS, and 1× Penicillin/Streptomycin in an incubator at 37° C. and 5% CO2. Cells were passaged every 4 days. For Fe2DG treatments, CCD 841 CoN cells were grown in 25 cm^2 Nunclon Delta Surface flasks (Cat. No. 136196; Thermo Fisher Scientific, Waltham, Mass.) with EMEM complete medium and kept in an incubator at 37° C. and 5% CO2 until close to 75% confluence was reached. Then medium for both cell types was replaced by DMEM no glucose (ThermoFisher Cat. No. 11966025) supplemented by 10% FBS and Fe2DG 1 mg/ml for two hours. Then medium was removed and both flasks were stained by Prussian blue staining kit “Advanced testing Iron stain” (ThermoFisher Cat. No. 87006). Cells in the flasks were fixed by 10% Formalin, then rinsed by deionized water. Then the cells were stained by freshly prepared Working Iron Solution 30 minutes at room temperature. Then the cells were rinsed by deionized water and counterstain by Nuclear Red Satin Solution for 30 seconds. […]

Fe (III)-2 deoxy D glucose [Fe2DG] was tested, and the “accumulation of iron (Prussian blue stain) in cancer cells (HT29)” value (HT29 cells [1]) was “significant accumulation of iron”, the “specificity of magnetic trapping: effect on WBC” value (WBC) was “without affect WBC” and the “depletion of HT29 cells in the sample pushed out of the tube inside the magnet” value (HT29 cells [2]) was “significant depletion”. The “enrichment of A375-eGFP-puro cells in the second fraction (2nd)” value (A375-eGFP-puro cells) was 18.5 times, the “depletion of BCECF AM stained HT29 cells (gate 4) in the sample pushed out of the tube inside the magnet” value (HT29 cells [3]) was “significant depletion” and the “accumulation of iron (Prussian blue stain) in normal human fibroblasts (CRL-1790)” value [4] was “practically no accumulation of Iron”.
